Results from patent US20210177828A1, “TAM FAMILY KINASE /AND CSF1R KINASE INHIBITOR AND USE THEREOF” (Nanjing Transthera Biosciences Co., Ltd., priority 2018, published 2021).

Experiments:
Type in all cases: biochemical
Axl (h) = target: T1, Axl (h) (Homo sapiens, UniProt P30530); assay: Enzymatic activity assay, Axl (h), [γ-33P]-ATP filter assay; details: 10 μM ATP, 40 min room temperature; read-out: Inhibitory activity IC50 Axl(h)
T1 sequence (P30530 26-894): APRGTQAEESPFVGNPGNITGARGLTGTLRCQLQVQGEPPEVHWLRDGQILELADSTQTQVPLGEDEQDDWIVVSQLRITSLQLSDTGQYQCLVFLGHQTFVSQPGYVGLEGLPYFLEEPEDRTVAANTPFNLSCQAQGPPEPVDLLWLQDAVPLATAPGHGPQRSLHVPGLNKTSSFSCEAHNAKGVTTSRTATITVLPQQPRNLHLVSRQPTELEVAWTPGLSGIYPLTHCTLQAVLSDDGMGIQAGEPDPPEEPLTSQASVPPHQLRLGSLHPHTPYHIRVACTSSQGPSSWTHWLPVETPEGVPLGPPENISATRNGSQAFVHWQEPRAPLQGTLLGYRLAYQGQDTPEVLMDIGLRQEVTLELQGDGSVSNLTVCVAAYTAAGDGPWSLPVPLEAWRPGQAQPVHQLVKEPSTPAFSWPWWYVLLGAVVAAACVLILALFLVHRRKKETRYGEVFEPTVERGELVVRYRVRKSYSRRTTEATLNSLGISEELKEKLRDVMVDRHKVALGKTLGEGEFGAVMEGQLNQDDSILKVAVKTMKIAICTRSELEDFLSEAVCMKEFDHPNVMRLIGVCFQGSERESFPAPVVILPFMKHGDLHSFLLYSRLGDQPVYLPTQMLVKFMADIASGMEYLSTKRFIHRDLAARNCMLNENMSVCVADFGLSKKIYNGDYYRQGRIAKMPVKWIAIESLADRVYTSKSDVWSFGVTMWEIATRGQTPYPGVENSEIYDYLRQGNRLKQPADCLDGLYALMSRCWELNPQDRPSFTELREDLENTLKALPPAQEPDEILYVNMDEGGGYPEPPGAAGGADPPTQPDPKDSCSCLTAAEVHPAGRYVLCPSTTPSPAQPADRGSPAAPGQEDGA
Experimental: (§1) Compounds were each dissolved in 100% DMSO to prepare stock solutions with a maximum concentration of 500 μM.
(§2) Compound working solutions (50×) were prepared by diluting a compound stock solution to a final concentration of 500, 150, 50, 15, 5, 1.5, 0.5, 0.15 and 0.05 μM.
An enzyme solution with a final concentration of 1.7 nM was prepared by dissolving Axl (h) enzyme in a mixture of 8 mM MOPS (pH 7.0), 0.2 mM EDTA and 250 μM KKSRGDYMTMQIG. A Mg/ATP mixture of 10 mM magnesium acetate and 10 μM [γ-^33P]-ATP was used to activate the enzymatic reaction.
(§3) A compound working solution was added to a 384-well plate, with final concentrations of 10,000, 3,000, 1,000, 300, 100, 30, 10, 3 and 1 nM, and then different enzymatic reaction solutions prepared according to the above conditions were added. The reaction solutions were incubated at room temperature for 40 min, and then 0.5% phosphoric acid solutions were added to terminate the reaction. 10 μL of the reaction solution was added dropwise to P30 filter paper, washed 4 times with a 0.425% phosphoric acid solution and once with methanol, and then placed in a scintillation counter for detection. Gray analysis was performed on the results with Image J software, and IC50 values were calculated with GraphPad 5.0 software.

Mer (h) = target: T2, Mer (h) (Homo sapiens, UniProt Q12866); assay: Enzymatic activity assay, Mer (h), [γ-33P]-ATP filter assay; details: 10 μM ATP, 40 min room temperature; read-out: Inhibitory activity IC50 Mer(h)
T2 sequence (Q12866 21-999): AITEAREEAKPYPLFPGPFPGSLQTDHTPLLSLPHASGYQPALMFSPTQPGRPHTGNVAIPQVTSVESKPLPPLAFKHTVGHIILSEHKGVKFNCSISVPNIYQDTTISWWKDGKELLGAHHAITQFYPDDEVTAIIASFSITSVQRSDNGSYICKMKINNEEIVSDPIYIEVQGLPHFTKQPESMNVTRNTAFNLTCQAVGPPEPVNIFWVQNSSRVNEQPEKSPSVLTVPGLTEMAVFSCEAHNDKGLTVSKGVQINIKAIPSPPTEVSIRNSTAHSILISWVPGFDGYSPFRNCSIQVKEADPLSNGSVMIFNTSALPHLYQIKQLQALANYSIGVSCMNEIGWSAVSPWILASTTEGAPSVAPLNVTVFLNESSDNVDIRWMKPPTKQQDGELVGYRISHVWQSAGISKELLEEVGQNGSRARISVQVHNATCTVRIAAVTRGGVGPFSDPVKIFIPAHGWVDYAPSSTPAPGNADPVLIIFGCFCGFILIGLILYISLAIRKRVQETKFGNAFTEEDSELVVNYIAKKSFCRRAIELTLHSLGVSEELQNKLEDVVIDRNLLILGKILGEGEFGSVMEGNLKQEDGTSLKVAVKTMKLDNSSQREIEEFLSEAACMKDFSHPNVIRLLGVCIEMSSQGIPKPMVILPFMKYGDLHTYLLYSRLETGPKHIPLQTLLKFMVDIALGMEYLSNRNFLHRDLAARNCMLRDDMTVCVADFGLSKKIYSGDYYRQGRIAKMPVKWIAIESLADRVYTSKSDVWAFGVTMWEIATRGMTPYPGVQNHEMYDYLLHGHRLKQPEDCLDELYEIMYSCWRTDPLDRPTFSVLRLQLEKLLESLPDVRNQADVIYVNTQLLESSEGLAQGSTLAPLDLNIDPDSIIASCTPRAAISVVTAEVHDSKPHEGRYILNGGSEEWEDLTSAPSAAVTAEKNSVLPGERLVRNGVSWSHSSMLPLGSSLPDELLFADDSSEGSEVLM
Experimental: as §1, §2
An enzyme solution with a final concentration of 3.1 nM was prepared by dissolving Mer (h) enzyme in a mixture of 8 mM MOPS (pH 7.0), 0.2 mM EDTA, 30 mM NaCl and 250 μM GGMEDIYFEFMGGKKK. A Mg/ATP mixture of 10 mM magnesium acetate and 10 μM [γ-^33P]-ATP was used to activate the enzymatic reaction.
as §3

Tyro-3 (h) = target: T3, Tyro-3 (h) (Homo sapiens, UniProt Q06418); assay: Enzymatic activity assay, Tyro-3 (h), [γ-33P]-ATP filter assay; details: 10 μM ATP, 40 min room temperature; read-out: Inhibitory activity IC50 Tyro-3(h)
T3 sequence (Q06418 41-890): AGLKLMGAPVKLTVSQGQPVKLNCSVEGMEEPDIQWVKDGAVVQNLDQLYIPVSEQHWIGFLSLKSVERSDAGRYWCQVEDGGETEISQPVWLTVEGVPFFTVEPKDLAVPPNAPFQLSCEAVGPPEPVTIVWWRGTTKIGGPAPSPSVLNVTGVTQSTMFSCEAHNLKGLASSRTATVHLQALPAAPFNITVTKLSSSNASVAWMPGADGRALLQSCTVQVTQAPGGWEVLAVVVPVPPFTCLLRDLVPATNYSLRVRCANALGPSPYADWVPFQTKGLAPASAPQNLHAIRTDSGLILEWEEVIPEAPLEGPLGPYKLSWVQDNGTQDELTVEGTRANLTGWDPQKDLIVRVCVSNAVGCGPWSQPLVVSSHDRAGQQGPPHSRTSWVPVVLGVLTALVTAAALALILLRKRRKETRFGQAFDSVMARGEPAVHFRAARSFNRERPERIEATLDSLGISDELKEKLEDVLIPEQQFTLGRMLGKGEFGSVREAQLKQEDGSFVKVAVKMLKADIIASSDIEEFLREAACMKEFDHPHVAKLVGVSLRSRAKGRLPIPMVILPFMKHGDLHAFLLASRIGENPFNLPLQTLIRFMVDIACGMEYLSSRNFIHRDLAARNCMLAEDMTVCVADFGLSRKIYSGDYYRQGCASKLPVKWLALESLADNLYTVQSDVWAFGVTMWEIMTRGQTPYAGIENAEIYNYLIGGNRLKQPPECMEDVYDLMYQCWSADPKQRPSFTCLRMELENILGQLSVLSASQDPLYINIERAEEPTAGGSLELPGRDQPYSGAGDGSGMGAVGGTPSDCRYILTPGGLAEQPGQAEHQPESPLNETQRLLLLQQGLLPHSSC
Experimental: as §1, §2
An enzyme solution with a final concentration of 38 nM was prepared by dissolving Tyro3 (h) enzyme in a mixture of 8 mM MOPS (pH 7.0), 0.2 mM EDTA, 1 mM MnCl2 and 250 μM KVEKIGEGTYGVVYK. A Mg/ATP mixture of 10 mM magnesium acetate and 10 μM [γ-^33P]-ATP was used to activate the enzymatic reaction.
as §3

| SMILES | IC50 (Axl (h)) [nM] | IC50 (Mer (h)) [nM] | IC50 (Tyro-3 (h)) [nM] |
| --- | --- | --- | --- |
| COc1cc2nccc(Oc3ccc(NC(=O)c4nn(CC5CCSCC5)cc(-c5ccc(C)cc5)c4=O)nc3)c2cc1OC [Compound 21, N-(5-((6,7-dimethoxyquinolin-4-yl)oxy)pyridin-2-yl)-4-oxo-1-((tetrahydro-2H-thiopyran-4-yl)methyl)-5-(p-tolyl)-1,4-dihydropyridazin-3-carboxamide] | 19 | 1 | 29 |
| COc1ccc(-c2cnc(N)c(-c3ccc(NC(=O)c4cc(-c5ccc(C)cc5)cn(CC5CCOCC5)c4=O)cc3)c2)cc1OC [Compound 35, N-(4-(2-amino-5-(3,4-dimethoxyphenyl)pyridin-3-yl)phenyl)-2-oxo-1-((tetrahydro-2H-pyran-4-yl)methyl)-5-(p-tolyl)-1,2-dihydropyridin-3-carboxamide] | 44 | – | – |
| COc1ccc(-c2cnc(N)c(-c3ccc(NC(=O)c4cn(CC5CCOCC5)c(=O)n(-c5ccc(C)cc5)c4=O)cc3)c2)cc1OC [Compound 37, N-(4-(2-amino-5-(3,4-dimethoxyphenyl)pyridin-3-yl)phenyl)-2,4-dioxo-1-((tetrahydro-2H-pyran-4-yl)methyl)-3-(p-tolyl)-1,2,3,4-tetrahydropyrimidin-5-carboxamide] | 57 | – | – |
| COc1cc2nccc(O[C@H]3CC[C@@H](NC(=O)c4cn(CC5CCOCC5)cc(-c5ccc(C)cc5)c4=O)CC3)c2cc1OC [Compound 38, N-((cis)-4-((6,7-dimethoxyquinolin-4-yl)oxy)cyclohexyl)-4-oxo-1-((tetrahydro-2H-pyran-4-yl)methyl)-5-(p-tolyl)-1,4-dihydropyridin-3-carboxamide] | 22 | – | – |

Compounds with a lower IC50 (Axl (h)), results first:

| IC50 (Axl (h)) [nM] | IC50 (Mer (h)) [nM] | IC50 (Tyro-3 (h)) [nM] | SMILES |
| --- | --- | --- | --- |
| 16 | 5 | 103 | COc1cc2nccc(Oc3cnc(NC(=O)c4cn(CC5CCSCC5)cc(-c5ccc(C)cc5)c4=O)nc3)c2cc1OC [Compound 22, N-(5-((6,7-dimethoxyquinolin-4-yl)oxy)pyrimidin-2-yl)-4-oxo-1-((tetrahydro-2H-thiopyran-4-yl)methyl)-5-(p-tolyl)-1,4-dihydropyridin-3-carboxamide] |
| 9 | 8 | 33 | COc1cc2nccc(Oc3cnc(NC(=O)c4nn(CC5CCSCC5)cc(-c5ccc(C)cc5)c4=O)nc3)c2cc1OC [Compound 23, N-(5-((6,7-dimethoxyquinolin-4-yl)oxy)pyrimidin-2-yl)-4-oxo-1-((tetrahydro-2H-thiopyran-4-yl)methyl)-5-(p-tolyl)-1,4-dihydropyridazin-3-carboxamide] |
